The source of these data is US11655247B2, “Nanoluc suicide substrates” (PROMEGA CORPORATION, priority 2018, dated 2023).

In assay [1] the target is T1, NanoLuc (Oplophorus gracilirostris, UniProt Q9GV45, A31E/A60N/A81I/F95D/I117V/K70R/L54V/L99Q/M102K/N193R/P142E/Q151K/Q38R/Q45L/V71I/Y165I). Format: biochemical. To be noted: for RLU (at 100 μM): relative value, Furimazine set to 1, NanoLuc, read three minutes after substrate addition. As for the experimental part:
Luminescence Assay Procedure:
Each compound to be screened was dissolved in DMSO (5 mM) and then further diluted to 100 μM in NANO-GLO® Luciferase Assay Buffer. Km values were determined by first serially diluting substrates two-fold into NANO-GLO® Luciferase Assay Buffer. Substrate dilutions were then combined with an equal volume of NanoLuc diluted to 4 ng/ml in TBS+0.01% BSA. Autoluminescence was measured by combining the 100 uM dilution of substrate with TBS+0.01% BSA. Luminescence and autoluminescence values were measured in a GloMax®-Multi+ luminometer three minutes after substrate addition. Signal decay was measured by combining equal volumes of 100 uM of substrate with 4 ng/ml NanoLuc in TBS+0.01% BSA and then samples were read in five minute intervals for two hours using a GloMax®-Multi+. Km was calculated using GraphPad Prism using nonlinear Michaelis-Menten regression. Signal half-life values were calculated using GraphPad Prism Non-linear decay, plateau set to zero.

Assay [2] concerns the target T1, NanoLuc. Nature of the assay: Inhibition of NanoLuc luciferase: blocking of furimazine luminescence after pre-incubation. Type of assay: biochemical. To be noted: for Inhibition of NanoLuc (bioluminescence upon later furimazine addition): compound incubated with NanoLuc first, then furimazine (10 μM) added; for Initial luminescent signal compared with furimazine: incubated with NanoLuc in DMEM for 12 minutes. As for the experimental part:
Compounds were also tested for their ability to block furimazine luminescence with NanoLuc. Typically, NanoLuc (0.4 μg/mL) in DMEM was incubated with either furimazine or test compound (50 μM) while monitoring RLU's with a GloMax® luminometer for 10-60 minutes. After the set time, the plate was removed from the instrument, and a dose of furimazine (10 μM) was added to the well containing the test compound and monitored for 10-60 minutes.
FIGS. 3A-B depicts inhibition of Nluc luciferase by furimazine-h. Furimazine-h (10 μM) was incubated with NanoLuc in NanoGlo or DMEM for 15 or 10 minutes, respectively. This bright signal rapidly degrades to a fraction of the signal observed in the furimazine positive control wells.
FIG. 9 depicts inhibition of Nluc luciferase by furimazine-h. This is a reverse addition experiment as compared to FIG. 3. Furimazine (10 μM) was incubated with NanoLuc in NanoGlo® buffer for 15 minutes.
JRW-0855 and JRW-1088 were incubated with NanoLuc in DMEM for 12 minutes. […] After the incubation period, 10 μM furimazine was added to the well.

T1 sequence (Q9GV45 28-196 with tags or gaps with the stated changes limits assumed): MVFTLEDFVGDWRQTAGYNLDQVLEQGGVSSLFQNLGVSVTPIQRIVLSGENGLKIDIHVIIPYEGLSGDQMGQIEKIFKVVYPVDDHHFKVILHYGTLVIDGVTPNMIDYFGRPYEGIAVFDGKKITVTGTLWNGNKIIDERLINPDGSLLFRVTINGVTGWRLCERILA

As to `O=c1c(Cc2ccco2)nc2c(Cc3ccccc3)[nH]c(-c3ccccc3)cn1-2` [Furimazine, 8-benzyl-2-(furan-2-ylmethyl)-6-phenylimidazo[1,2-a]pyrazin-3(7H)-one, reference compound], the “Light output (value set to 1)” value at NanoLuc [1] (at 2 ng/mL NanoLuc) is ~2.0×10^7 RLU. Also, at NanoLuc [1], the “RLU (at 100 μM)” value is on record as 1.
`NCCCCCCOc1ccc(Cc2nc3c(Cc4ccccc4)[nH]c(-c4ccc(O)cc4)cn-3c2=O)cc1F` [JRW-0855, 2-(4-((6-aminohexyl)oxy)-3-fluorobenzyl)-8-benzyl-6-(4-hydroxyphenyl)imidazo[1,2-a]pyrazin-3(7H)-one]: on NanoLuc [2], the “Inhibition of NanoLuc (bioluminescence upon later furimazine addition)” value (from here on “Inhibition of NanoLuc”) is listed as “only partially inhibited” and the “Initial luminescent signal compared with furimazine” value is reported as “significantly lower”. For the same compound, the “RLU (at 100 μM)” value at NanoLuc [1] turned out to be 0.004.
As to `O=c1c(Cc2ccc(OCCCCCCS(=O)(=O)[O-])c(F)c2)nc2c(Cc3ccccc3)[nH]c(-c3ccc(O)cc3)cn1-2.[Na+]` [JRW-0892-2, Sodium 6-(4-((8-benzyl-6-(4-hydroxyphenyl)-3-oxo-3,7-dihydroimidazo[1,2-a]pyrazin-2-yl)methyl)-2-fluorophenoxy)hexane-1-sulfonate], the “Inhibition of NanoLuc” value on NanoLuc [2] is on record as “exemplary suicide substrates of NanoLuc”. Further, the “RLU (at 100 μM)” value on NanoLuc [1] turned out to be 0.04.
The matching figures for `O=C(NCCCCCCOc1ccc(Cc2nc3c(Cc4ccccc4)[nH]c(-c4ccc(O)cc4)cn-3c2=O)cc1F)c1ccc(C(=O)[O-])c(-c2c3ccc(O)cc3[o+]c3cc(O)ccc23)c1` [JRW-0893, 4-((6-(4-((8-benzyl-6-(4-hydroxyphenyl)-3-oxo-3,7-dihydroimidazo[1,2-a]pyrazin-2-yl)methyl)-2-fluorophenoxy)hexyl)carbamoyl)-2-(3,6-dihydroxyxanthylium-9-yl)benzoate]: “exemplary suicide substrates of NanoLuc” and 0.05.
The matching figures for `O=C(CCc1ccc2n1[B-](F)(F)[N+]1=C(c3ccc[nH]3)C=CC1=C2)NCCCCCCOc1ccc(Cc2nc3c(Cc4ccccc4)[nH]c(-c4ccc(O)cc4)cn-3c2=O)cc1F` [JRW-0900, N-(6-(4-((8-benzyl-6-(4-hydroxyphenyl)-3-oxo-3,7-dihydroimidazo[1,2-a]pyrazin-2-yl)methyl)-2-fluorophenoxy)hexyl)-3-(5,5-difluoro-7-(1H-pyrrol-2-yl)-5H-5l4,6l4-dipyrrolo[1,2-c:2′,1′-f][1,3,2]diazaborinin-3-yl)propanamide]: “did not inhibit NanoLuc” and 0.00094.
On to `NCCCCCCCCOc1ccc(Cc2nc3c(Cc4ccccc4)[nH]c(-c4ccc(O)cc4)cn-3c2=O)cc1F` [JRW-0904, 2-(4-((8-aminooctyl)oxy)-3-fluorobenzyl)-8-benzyl-6-(4-hydroxyphenyl)imidazo[1,2-a]pyrazin-3(7H)-one], for which the “Inhibition of NanoLuc” value at NanoLuc [2] was “partial Nluc inhibitors”.
Take `NCCOCCOCCC(=O)NCCCCCCCCOc1ccc(Cc2cc3c(Cc4ccccc4)[nH]c(-c4ccc(O)cc4)cn-3c2=O)cc1F` [JRW-0925, 3-(2-(2-aminoethoxy)ethoxy)-N-(8-(4-((1-benzyl-3-(4-hydroxyphenyl)-6-oxo-2,6-dihydropyrrolo[1,2-a]pyrazin-7-yl)methyl)-2-fluorophenoxy)octyl)propanamide]: the “Inhibition of NanoLuc” value on NanoLuc [2] was “partial Nluc inhibitors”. For the same compound, the “RLU (at 100 μM)” value on NanoLuc [1] is reported as 0.02.
The matching figures for `O=C(CCOCCOCCNC(=O)c1ccc(C(=O)[O-])c(-c2c3ccc(O)cc3[o+]c3cc(O)ccc23)c1)NCCCCCCCCOc1ccc(Cc2cc3c(Cc4ccccc4)[nH]c(-c4ccc(O)cc4)cn-3c2=O)cc1F` [JRW-0926, 4-((2-(2-(3-((8-(4-((1-benzyl-3-(4-hydroxyphenyl)-6-oxo-2,6-dihydropyrrolo[1,2-a]pyrazin-7-yl)methyl)-2-fluorophenoxy)octyl)amino)-3-oxopropoxy)ethoxy)ethyl)carbamoyl)-2-(3,6-dihydroxyxanthylium-9-yl)benzoate]: “exemplary suicide substrates of NanoLuc” and 0.04.
For `[N-]=[N+]=NCCCCCCOc1ccc(Cc2nc3c(Cc4ccccc4)[nH]c(-c4ccc(O)cc4)cn-3c2=O)cc1F` [JRW-0975, 2-(4-((6-azidohexyl)oxy)-3-fluorobenzyl)-8-benzyl-6-(4-hydroxyphenyl)imidazo[1,2-a]pyrazin-3(7H)-one], the “Inhibition of NanoLuc” value at NanoLuc [2] is “exemplary suicide substrates of NanoLuc”. For the same compound, the “RLU (at 100 μM)” value on NanoLuc [1] came to 0.005.
The matching figures for `O=c1ccc2cc(Cc3nc4c(Cc5ccccc5)[nH]c(-c5ccc(O)cc5)cn-4c3=O)ccc2o1` [JRW-0995, 8-benzyl-6-(4-hydroxyphenyl)-2-((2-oxo-2H-chromen-6-yl)methyl)imidazo[1,2-a]pyrazin-3(7H)-one]: “partial Nluc inhibitors” and 0.009.
Regarding `O=C(NCCCCCCCCOc1ccc(Cc2nc3c(Cc4ccccc4)[nH]c(-c4ccc(O)cc4)cn-3c2=O)cc1F)c1cc2ccc(O)cc2oc1=O` [JRW-1018, N-(8-(4-((8-benzyl-6-(4-hydroxyphenyl)-3-oxo-3,7-dihydroimidazo[1,2-a]pyrazin-2-yl)methyl)-2-fluorophenoxy)octyl)-7-hydroxy-2-oxo-2H-chromene-3-carboxamide], the “Inhibition of NanoLuc” value on NanoLuc [2] is given as “partial Nluc inhibitors”.
In the case of `O=C(NCCCCCCCCOc1ccc(Cc2nc3c(Cc4ccccc4)[nH]c(-c4ccc(O)cc4)cn-3c2=O)cc1F)c1cc2cc3c4c(c2oc1=O)CCCN4CCC3` [JRW-1023, N-(8-(4-((8-benzyl-6-(4-hydroxyphenyl)-3-oxo-3,7-dihydroimidazo[1,2-a]pyrazin-2-yl)methyl)-2-fluorophenoxy)octyl)-11-oxo-2,3,6,7-tetrahydro-1H,5H,11H-pyrano[2,3-f]pyrido[3,2,1-ij]quinoline-10-carboxamide], at NanoLuc [2], the “Inhibition of NanoLuc” value is “did not inhibit NanoLuc”.
The same measure, in the same setting: the same measure for `O=C(NCCCCCCCCOc1ccc(Cc2nc3c(Cc4ccccc4)[nH]c(-c4ccc(O)cc4)cn-3c2=O)cc1F)c1ccc(-c2c3cc(F)c(O)cc3[o+]c3cc(O)c(F)cc23)c(C(=O)[O-])c1` [JRW-1058, 5-((8-(4-((8-benzyl-6-(4-hydroxyphenyl)-3-oxo-3,7-dihydroimidazo[1,2-a]pyrazin-2-yl)methyl)-2-fluorophenoxy)octyl)carbamoyl)-2-(2,7-difluoro-3,6-dihydroxyxanthylium-9-yl)benzoate]: “exemplary suicide substrates of NanoLuc”; for `O=C(NCCCCCCCCOc1ccc(Cc2nc3c(Cc4ccccc4)[nH]c(-c4ccc(O)cc4)cn-3c2=O)cc1F)c1ccc(-c2c3ccc4cc(O)ccc4c3[o+]c3c2ccc2cc(O)ccc23)c(C(=O)[O-])c1` [JRW-1059, 5-((8-(4-((8-benzyl-6-(4-hydroxyphenyl)-3-oxo-3,7-dihydroimidazo[1,2-a]pyrazin-2-yl)methyl)-2-fluorophenoxy)octyl)carbamoyl)-2-(3,11-dihydroxydibenzo[c,h]xanthen-14-ium-7-yl)benzoate]: “NanoLuc is not inhibited”.
Take `Cc1cc(C)n2c1C(CCNC(=O)CCC(=O)NCCCCCCCCOc1ccc(Cc3nc4c(Cc5ccccc5)[nH]c(-c5ccc(O)cc5)cn-4c3=O)cc1F)=C1C=CC=[N+]1[B-]2(F)F` [JRW-1088, N1-(8-(4-((8-benzyl-6-(4-hydroxyphenyl)-3-oxo-3,7-dihydroimidazo[1,2-a]pyrazin-2-yl)methyl)-2-fluorophenoxy)octyl)-N4-(2-(5,5-difluoro-1,3-dimethyl-5H-5λ^4,6λ^4-dipyrrolo[1,2-c:2′,1′-f][1,3,2]diazaborinin-10-yl)ethyl)succinamide]: on NanoLuc [2], the “Inhibition of NanoLuc” value is “only partially inhibited” and the “Initial luminescent signal compared with furimazine” value is recorded as “significantly lower”.
